Laboratory results as given in patent US20100209378A1, “Dimethylcyclohexyl Derivatives as Malodor Neutralizers” (GIVAUDAN SA, priority 2007, published 2010).

Columns and labels:
[1] = Headspace GC/MS malodor reduction, hexyl amine; details: 0.5 g test compound, 10 ul malodor in 1 l headspace jar, 60 minutes contact at 25° C.
Method: (§1) Amines are key contributors to many household malodors. Sulfides are present in odors associated with bad breath. In order to assess the malodor reduction efficacy of the compounds of the present invention, they were evaluated for their ability to reduce hexyl amine malodor and allyl disulphide by the following method.
(§2) A one liter glass headspace collection jar had placed inside it a 25 ml stoppered glass container which contained 0.5 g of a test compound. 10 ul of hexyl amine or allyl disulphide mercaptan as a representative malodor was injected into the headspace jar. This was left for 15 minutes at 25° C. to equilibrate. One ml/minute of the headspace was drawn for one minute through a Tenax™ headspace trap. The Tenax™ trap was removed and thermally desorbed into an Agilent 6890 GC/MS to analyze the quantity of hexyl amine and allyl disulphide mercaptan respectively in the headspace to determine the initial concentration of the hexyl amine malodor/ally disulphide mercaptan. The glass stopper was removed from the container and the test component and the malodor were left in contact for 60 minutes at 25° C. One ml/minute of the headspace was drawn for one minute through a Tenax™ trap and the amount of malodor remaining was determined as above.

[2] = Headspace GC/MS malodor reduction, allyl disulphide; details: 0.5 g test compound, 10 ul malodor in 1 l headspace jar, 60 minutes contact at 25° C.
Method: as §1, §2

[3] = Headspace GC/MS malodor reduction, onion oil; details: method of Example 4; diallyl sulfide and diallyl disulfide measured as standard
Method: as §2
(§3) Evaluation of the malodor reduction potential of the compounds of the present invention on malodors of natural garlic oil and onion oil using the methodology described in Example 4 is shown in Table 2. As standard for determining the reduction of onion oil odor the amount of diallyl sulfide and diallyl disulfide were measured, and propyl methyl disulfide and dipropyl disulfide for determining the reduction of garlic oil odor.

[4] = Headspace GC/MS malodor reduction, garlic oil; details: method of Example 4; propyl methyl disulfide and dipropyl disulfide measured as standard
Method: as §2, §3

[5] = Sensory panel (LMS) reduction of synthetic axilla malodor on cotton pads; details: 100 ul of 1% solution of test compound on pad with 100 ul 0.1% axilla malodor; panel of 20, LMS
Method: A 0.1% ethanol solution of synthetic axilla malodor was prepared and a 100 ul aliquot was placed onto cotton pads. 1% solutions of test compounds were prepared and 100 ul dosed on to the axilla treated pads. One pad was left untreated as the control. Each pad was allowed to dry for 15 minutes. The test cotton pads were randomized, and a panel of 20 was used. Each panelist was asked to check a box that represented the strength of the axilla malodor using a Labeled Magnitude Scale (LMS) (Barry G. Green, Pamela Dalton, Beverly Cowart, Greg Shaffer, Krystyna Rankin and Jennifer Higgins. Evaluating the Labeled Magnitude Scale for Measuring Sensations of Taste and Smell. Chemical Senses. Vol. 21, pp 323-334, 1996).
The % reduction of malodor was calculated by: […]
Composition 1 was compared with composition 2 for malodor reduction efficiency using the method described in Example 6.

| Structure (SMILES) | % Reduction of hexyl amine [1] [%] | % Reduction of allyl disulphide [2] [%] | % Reduction of onion oil odor [3] [%] | % Reduction of garlic oil odor [4] [%] | % Reduction of Axilla [5] [%] |
| --- | --- | --- | --- | --- | --- |
| CC(O)C(=O)OC(C)C1CCCC(C)(C)C1 (stereo not shown) [Compound A, 1-(3,3-dimethylcyclohexyl)ethyl 2-hydroxypropanoate] | 80.3 | 81.5 | 87.2 | 87.7 | 77.2 |
| CC(OCC(=O)O)C1CCCC(C)(C)C1 (stereo not shown) [Compound B, 2-(1-(3,3-dimethylcyclohexyl)ethoxy)acetic acid] | 91.4 | 74.6 | 66.3 | 73.2 | 67.6 |
| CC(OCCO)C1CCCC(C)(C)C1 (stereo not shown) [Compound C, 2-(1-(3,3-dimethylcyclohexyl)ethoxy)ethanol] | 71.2 | 70.2 | 78.4 | 67.4 | 61.4 |
| CC(C)=CCCC(C)CCOC(=O)C=C(C)C (stereo not shown) [citronellyl methylcrotonate, reference compound] | – | – | – | – | 53.1 |
